# Molecular target: T1, human neprilysin (EC 3.4.24.11; NEP) (Homo sapiens, UniProt P08473)
# T1 construct: purchased R&D Systems, Minneapolis, Minn; 1182-ZN
# Experiment: In vitro enzyme inhibition assay at human NEP (fluorogenic peptide substrate)
# Assay type: biochemical
# Details: recombinant human NEP; 37° C.; substrate Mca-D-Arg-Arg-Leu-Dap-(Dnp)-OH 10 μM; values given as ranges; read-out: pKi values at human NEP (converted)
# Method in brief: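 Recombinant human NEP pre-incubated 30 min at 37 °C with compound (10 μM to 20 pM), then cleaved 20 min at 37 °C with 10 μM Mca-D-Arg-Arg-Leu-Dap-(Dnp)-OH in HEPES pH 7.5, NaCl, Tween-20, 10 μM ZnSO4. Stopped with acetic acid; fluorescence Ex 320/Em 405 nm; apparent Ki from v=v0/[1+(I/K′)] fit, reported as pKi.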
# T1 sequence (P08473 52-750 limits assumed): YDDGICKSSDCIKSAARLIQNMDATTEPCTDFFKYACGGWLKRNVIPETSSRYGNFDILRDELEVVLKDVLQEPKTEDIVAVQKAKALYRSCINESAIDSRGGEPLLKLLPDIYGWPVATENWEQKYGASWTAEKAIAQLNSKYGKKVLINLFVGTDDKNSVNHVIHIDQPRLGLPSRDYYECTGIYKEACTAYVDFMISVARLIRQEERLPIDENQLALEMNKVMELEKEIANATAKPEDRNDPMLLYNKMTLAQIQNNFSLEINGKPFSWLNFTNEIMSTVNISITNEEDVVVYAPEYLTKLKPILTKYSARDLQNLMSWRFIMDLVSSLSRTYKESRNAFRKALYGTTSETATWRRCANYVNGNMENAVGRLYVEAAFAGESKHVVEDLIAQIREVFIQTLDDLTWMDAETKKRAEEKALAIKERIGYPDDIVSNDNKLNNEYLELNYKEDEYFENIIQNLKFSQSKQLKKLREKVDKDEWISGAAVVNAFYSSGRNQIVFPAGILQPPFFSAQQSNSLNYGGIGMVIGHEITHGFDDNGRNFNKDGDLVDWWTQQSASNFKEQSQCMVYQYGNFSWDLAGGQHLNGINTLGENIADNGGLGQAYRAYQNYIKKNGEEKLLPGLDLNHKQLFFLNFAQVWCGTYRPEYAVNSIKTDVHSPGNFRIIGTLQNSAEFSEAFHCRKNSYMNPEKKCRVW
row,SMILES,Ki [nM]
1,"Cc1ccc(C(=O)N[C@H](Cc2ccccc2)[C@@H](O)C(=O)O)cc1-c1cccc(C(=O)O)c1 [Example 10-62, 5′-((1R,2R)-1-Benzyl-2-carboxy-2-hydroxy-ethylcarbamoyl)-2′-methyl-biphenyl-3-carboxylic acid]",12.6 to 100
2,"O=C(N[C@H](Cc1ccccc1)[C@@H](O)C(=O)O)c1cccc(-c2ncccc2C(=O)O)c1 [Example 10-63, 2-[3-((1R,2R)-1-Benzyl-2-carboxy-2-hydroxy-ethylcarbamoyl)-phenyl]-nicotinic acid]",1.26 to 10
3,"O=C(N[C@H](Cc1ccccc1)[C@@H](O)C(=O)O)c1cccc(-c2cccnc2C(=O)O)c1 [Example 10-64, 3-[3-((1R,2R)-1-Benzyl-2-carboxy-2-hydroxy-ethylcarbamoyl)-phenyl]-pyridine-2-carboxylic acid]",12.6 to 100
4,"CCc1ccc(C(=O)N[C@H](Cc2ccccc2)[C@@H](O)C(=O)O)cc1-n1c(=O)[nH]c2sc(C)cc2c1=O [Example 10-65, (2R,3R)-3-[4-Ethyl-3-(6-methyl-2,4-dioxo-1,4-dihydro-2H-thieno[2,3-d]pyrimidin-3-yl)-benzoylamino]-2-hydroxy-4-phenyl-butyric acid]",≤ 1
5,"CCCCC(=O)Nc1cc(C(=O)N[C@H](Cc2ccccc2)[C@@H](O)C(=O)O)ccc1CC [Example 10-66, (2R,3R)-3-(4-Ethyl-3-pentanoylamino-benzoylamino)-2-hydroxy-4-phenyl-butyric acid]",12.6 to 100
6,"CCc1ccc(C(=O)N[C@H](Cc2ccccc2)[C@@H](O)C(=O)O)cc1NC(=O)CC(=O)O [Example 10-67, (2R,3R)-3-[3-(2-Carboxy-acetylamino)-4-ethyl-benzoylamino]-2-hydroxy-4-phenyl-butyric acid]",12.6 to 100
7,"CCc1ccc(C(=O)N[C@H](Cc2ccccc2)[C@@H](O)C(=O)O)cc1NC(=O)c1ccccc1 [Example 10-68, (2R,3R)-3-(3-Benzoylamino-4-ethyl-benzoylamino)-2-hydroxy-4-phenyl-butyric acid]",12.6 to 100
8,"CCc1ccc(C(=O)N[C@H](Cc2ccccc2)[C@@H](O)C(=O)O)cc1NC(=O)c1cccnc1 [Example 10-69, (2R,3R)-3-{4-Ethyl-3-[(pyridine-3-carbonyl)-amino]-benzoylamino}-2-hydroxy-4-phenyl-butyric acid]",12.6 to 100
9,"CCc1ccc(C(=O)N[C@H](Cc2ccccc2)[C@@H](O)C(=O)O)cc1NC(=O)c1ccccn1 [Example 10-70, (2R,3R)-3-{4-Ethyl-3-[(pyridine-2-carbonyl)-amino]-benzoylamino}-2-hydroxy-4-phenyl-butyric acid]",12.6 to 100
10,"CCc1ccc(C(=O)N[C@H](Cc2ccccc2)[C@@H](O)C(=O)O)cc1NC(=O)c1ccncc1 [Example 10-71, (2R,3R)-3-{4-Ethyl-3-[(pyridine-4-carbonyl)-amino]-benzoylamino}-2-hydroxy-4-phenyl-butyric acid]",12.6 to 100
11,"CCNC(=O)Nc1cc(C(=O)N[C@H](Cc2ccccc2)[C@@H](O)C(=O)O)ccc1CC [Example 10-72, (2R,3R)-3-[4-Ethyl-3-(3-ethyl-ureido)-benzoylamino]-2-hydroxy-4-phenyl-butyric acid]",12.6 to 100
12,"CCCCNC(=O)Nc1cc(C(=O)N[C@H](Cc2ccccc2)[C@@H](O)C(=O)O)ccc1CC [Example 10-73, (2R,3R)-3-[3-(3-Butyl-ureido)-4-ethyl-benzoylamino]-2-hydroxy-4-phenyl-butyric acid]",12.6 to 100
13,"CCc1ccc(C(=O)N[C@H](Cc2ccccc2)[C@@H](O)C(=O)O)cc1NC(=O)NC(CC(C)C)C(=O)O (stereo partly drawn) [Example 10-74, 2-{3-[5-((1R,2R)-1-Benzyl-2-carboxy-2-hydroxy-ethylcarbamoyl)-2-ethyl-phenyl]-ureido}-4-methyl-pentanoic acid]",12.6 to 100
14,"CCc1ccc(C(=O)N[C@H](Cc2ccccc2)[C@@H](O)C(=O)O)cc1NC(=O)Nc1ccccc1 [Example 10-75, (2R,3R)-3-[4-Ethyl-3-(3-phenyl-ureido)-benzoylamino]-2-hydroxy-4-phenyl-butyric acid]",12.6 to 100
15,"CCc1ccc(C(=O)N[C@H](Cc2ccccc2)[C@@H](O)C(=O)O)cc1NC(=O)Nc1sccc1C(=O)O [Example 10-76, 2-{3-[5-((1R,2R)-1-Benzyl-2-carboxy-2-hydroxy-ethylcarbamoyl)-2-ethyl-phenyl]-ureido}-thiophene-3-carb oxylic acid]",12.6 to 100
16,"CCc1ccc(C(=O)N[C@H](Cc2ccccc2)[C@@H](O)C(=O)O)cc1NC(=O)Nc1sc(C)cc1C(=O)O [Example 10-77, 2-{3-[5-((1R,2R)-1-Benzyl-2-carboxy-2-hydroxy-ethylcarbamoyl)-2-ethyl-phenyl]-ureido}-5-methyl-thiophene-3-carboxylic acid]",≤ 1
17,"CCc1ccc(C(=O)N[C@H](Cc2ccccc2)[C@@H](O)C(=O)O)cc1NC(=O)Nc1ccsc1C(=O)O [Example 10-78, 3-{3-[5-((1R,2R)-1-Benzyl-2-carboxy-2-hydroxy-ethylcarbamoyl)-2-ethyl-phenyl]-ureido}-thiophene-2-carboxylic acid]",12.6 to 100

row,SMILES,Ki [nM]
1,"CCCCOC(=O)Nc1cc(C(=O)N[C@H](Cc2ccccc2)[C@@H](O)C(=O)O)ccc1CC [Example 10-79, (2R,3R)-3-(3-Butoxycarbonylamino-4-ethyl-benzoylamino)-2-hydroxy-4-phenyl-butyric acid]",12.6 to 100
2,"CC(C)c1ccc(C(=O)N[C@H](Cc2ccccc2)[C@@H](O)C(=O)O)cc1-c1ccncc1 [Example 10-80, (2R,3R)-2-Hydroxy-3-(4-isopropyl-3-pyridin-4-yl-benzoylamino)-4-phenyl-butyric acid]",12.6 to 100
3,"CC(C)c1ccc(C(=O)N[C@H](Cc2ccccc2)[C@@H](O)C(=O)O)cc1-c1cccc(C(=O)N(C)C)c1 [Example 10-81, (2R,3R)-3-[(3′-Dimethylcarbamoyl-6-isopropyl-biphenyl-3-carbonyl)-amino]-2-hydroxy-4-phenyl-butyric acid]",12.6 to 100
4,"Cc1cc(C(=O)N[C@H](Cc2ccccc2)[C@@H](O)C(=O)O)cc(C)c1F [Example 10-82, (2R,3R)-3-(4-Fluoro-3,5-dimethyl-benzoylamino)-2-hydroxy-4-phenyl-butyric acid]",12.6 to 100
5,"O=C(O)C[C@@H](Cc1ccccc1Cl)NC(=O)CCCc1ccccc1C(=O)O [Example 11, 2-{3-[(R)-1-Carboxymethyl-2-(2-chlorophenyl)-ethylcarbamoyl]-propyl}-benzoic Acid]",1.26 to 10
6,"Cc1ccc(C(=O)N[C@@H](CC(=O)O)Cc2ccccc2Cl)cc1-c1ccccc1C(=O)O [Example 12, 5′-[(R)-2-Carboxy-1-(2-chloro-benzyl)-ethylcarbamoyl]-2′-methyl-biphenyl-2-carboxylic Acid]",1.26 to 10
7,"O=C(O)Cc1ccccc1-c1cccc(C(=O)N[C@@H](CC(=O)O)Cc2ccccc2Cl)c1 [Example 13-1, (R)-3-[(2′-Carboxymethyl-biphenyl-3-carbonyl)-amino]-4-(2-chloro-phenyl)-butyric acid]",12.6 to 100
8,"O=C(O)C[C@@H](Cc1ccccc1Cl)NC(=O)c1cccc(-c2ccccc2C(=O)O)c1 [Example 13-2, 3′-[(R)-2-Carboxy-1-(2-chloro-benzyl)-ethylcarbamoyl]-biphenyl-2-carboxylic acid]",1.26 to 10
9,"Cc1ccc(C(=O)N[C@@H](CC(=O)O)Cc2ccccc2Cl)cc1-c1ccccc1CC(=O)O [Example 13-3, (R)-3-[(2′-Carboxymethyl-6-methyl-biphenyl-3-carbonyl)-amino]-4-(2-chloro-phenyl)-butyric acid]",1.26 to 10
10,"O=C(O)Cc1ccccc1-c1ccc(C(=O)N[C@@H](CC(=O)O)Cc2ccccc2Cl)cc1 [Example 13-4, (R)-3-[(2′-Carboxymethyl-biphenyl-4-carbonyl)-amino]-4-(2-chloro-phenyl)-butyric acid]",12.6 to 100
11,"CC1=NN(c2ccc(C(=O)N[C@@H](CC(=O)O)Cc3ccccc3Cl)cc2Cl)C(=O)C1 [Example 13-5, (R)-3-[3-Chloro-4-(3-methyl-5-oxo-4,5-dihydro-pyrazol-1-yl)-benzoylamino]-4-(2-chloro-phenyl)-butyric acid]",12.6 to 100
12,"CC1=NN(c2ccc(C(=O)N[C@@H](CC(=O)O)Cc3ccccc3Cl)cc2)C(=O)C1 [Example 13-6, (R)-4-(2-Chlorophenyl)-3-[4-(3-methyl-5-oxo-4,5-dihydro-pyrazol-1-yl)-benzoylamino]-butyric acid]",12.6 to 100
13,"CC1=NN(c2cccc(C(=O)N[C@@H](CC(=O)O)Cc3ccccc3Cl)c2)C(=O)C1 [Example 13-8, (R)-4-(2-Chlorophenyl)-3-[3-(3-methyl-5-oxo-4,5-dihydro-pyrazol-1-yl)-benzoylamino]-butyric acid]",12.6 to 100
14,"CCCC1=NN(c2cccc(C(=O)N[C@@H](CC(=O)O)Cc3ccccc3Cl)c2)C(=O)C1 [Example 13-9, (R)-4-(2-Chlorophenyl)-3-[3-(5-oxo-3-propyl-4,5-dihydro-pyrazol-1-yl)-benzoylamino]-butyric acid]",12.6 to 100
15,"CCc1ccc(C(=O)N[C@@H](CC(=O)O)Cc2ccccc2Cl)cc1-n1c(=O)[nH]c2sc(C)cc2c1=O [Example 13-10, (R)-4-(2-Chlorophenyl)-3-[4-ethyl-3-(6-methyl-2,4-dioxo-1,4-dihydro-2H-thieno[2,3-d]pyrimidin-3-yl)-benzoylamino]-butyric acid]",12.6 to 100
16,"Cc1ccc(C(=O)N[C@@H](CC(=O)O)Cc2ccccc2C(F)(F)F)cc1-c1ccccc1C(=O)O [Example 14, 5′-[(R)-2-Carboxy-1-(2-trifluoromethyl-benzyl)-ethylcarbamoyl]-2′-methyl-biphenyl-2-carboxylic Acid]",1.26 to 10

# — patent US8686184B2, “Neprilysin inhibitors” (Theravance, Inc., priority 2011, dated 2014)
